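Method: 48-hour compound exposure of cells in 96-well plates, five concentrations, linear interpolation of endpoints. GI50: concentration for 50% inhibition of growth.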 Calls of active or inactive are those of the source. Cut-off read from the data, not from the text of the source: active = GI50 up to about 1.1 µM and inactive = higher.
Assays:
Assay in all cases: DTP human tumour cell line panel, 48 h
A549 = tested on: A549
CCRF-CEM = tested on: CCRF-CEM
HCC 2998 = tested on: HCC 2998
HOP-62 = tested on: HOP-62
HT-29 = tested on: HT-29
K562 = tested on: K562
LOX IMVI = tested on: LOX IMVI
M14 = tested on: M14
Malme-3M = tested on: Malme-3M
NCI-H460 = tested on: NCI-H460
NCI-H522 = tested on: NCI-H522
NCI/ADR-RES = tested on: NCI/ADR-RES
OVCAR-3 = tested on: OVCAR-3
OVCAR-4 = tested on: OVCAR-4
RXF 393 = tested on: RXF 393
SF-268 = tested on: SF-268
SW-620 = tested on: SW-620
UO-31 = tested on: UO-31
HOP-92 = tested on: HOP-92
SF-539 = tested on: SF-539

With `O/N=C1/Nc2cc(Cl)ccc2C(=S)N2CSCC12` (stereo not drawn) as the molecule, how does the GI50 (A549) read?
The GI50 was > 100 µM (inactive).

And the GI50 (CCRF-CEM)?
The GI50 was > 100 µM (inactive).

What about the GI50 (HCC 2998) of the same molecule?
The GI50 was > 100 µM (inactive).

What about the GI50 (HOP-62) of the same molecule?
The GI50 was > 100 µM (inactive).

And the GI50 (HT-29)?
Its GI50 is > 100 µM (inactive).

And the GI50 (K562)?
Its GI50 is 87.3 µM (inactive).

What about the GI50 (LOX IMVI) of the same molecule?
Its GI50 is > 100 µM (inactive).

And the GI50 (M14)?
Its GI50 is > 100 µM (inactive).

What about the GI50 (Malme-3M) of the same molecule?
Its GI50 is > 100 µM (inactive).

And the GI50 (NCI-H460)?
The GI50 was > 100 µM (inactive).

What about the GI50 (NCI-H522) of the same molecule?
The GI50 was > 100 µM (inactive).

What about the GI50 (NCI/ADR-RES) of the same molecule?
The GI50 was > 100 µM (inactive).

What about the GI50 (OVCAR-3) of the same molecule?
Its GI50 is > 100 µM (inactive).

What about the GI50 (OVCAR-4) of the same molecule?
Its GI50 is > 100 µM (inactive).

What about the GI50 (RXF 393) of the same molecule?
Its GI50 is > 100 µM (inactive).

And the GI50 (SF-268)?
Its GI50 is > 100 µM (inactive).

And the GI50 (SW-620)?
Its GI50 is > 100 µM (inactive).

What about the GI50 (UO-31) of the same molecule?
Its GI50 is > 100 µM (inactive).

`O=c1[nH]nc(-c2ccccc2)c2[nH]c(-c3ccccc3)cc12` was tested. Which GI50 (A549) did it give?
The GI50 was > 100 µM (inactive).

And the GI50 (CCRF-CEM)?
The GI50 was > 100 µM (inactive).

And the GI50 (HOP-62)?
The GI50 was > 100 µM (inactive).

What about the GI50 (HOP-92) of the same molecule?
The GI50 was > 100 µM (inactive).

What about the GI50 (HT-29) of the same molecule?
The GI50 was 12.2 µM (inactive).

And the GI50 (K562)?
Its GI50 is 50.8 µM (inactive).

What about the GI50 (LOX IMVI) of the same molecule?
Its GI50 is > 100 µM (inactive).

And the GI50 (M14)?
The GI50 was > 100 µM (inactive).

What about the GI50 (Malme-3M) of the same molecule?
The GI50 was > 100 µM (inactive).

And the GI50 (NCI/ADR-RES)?
Its GI50 is > 100 µM (inactive).

And the GI50 (OVCAR-3)?
Its GI50 is > 100 µM (inactive).

And the GI50 (OVCAR-4)?
The GI50 was > 100 µM (inactive).

And the GI50 (RXF 393)?
The GI50 was > 100 µM (inactive).

And the GI50 (SF-268)?
The GI50 was > 100 µM (inactive).

What about the GI50 (SW-620) of the same molecule?
The GI50 was > 100 µM (inactive).

What about the GI50 (UO-31) of the same molecule?
The GI50 was > 100 µM (inactive).

`CN1C(=O)C2CCCC(=O)N2c2cccnc21` (stereo not drawn) was tested. Which GI50 (A549) did it give?
Its GI50 is > 100 µM (inactive).

And the GI50 (CCRF-CEM)?
The GI50 was > 100 µM (inactive).

And the GI50 (HCC 2998)?
Its GI50 is > 100 µM (inactive).

What about the GI50 (HOP-62) of the same molecule?
The GI50 was > 100 µM (inactive).

And the GI50 (HT-29)?
Its GI50 is > 100 µM (inactive).

And the GI50 (K562)?
Its GI50 is > 100 µM (inactive).

And the GI50 (LOX IMVI)?
Its GI50 is > 100 µM (inactive).

What about the GI50 (Malme-3M) of the same molecule?
The GI50 was > 100 µM (inactive).

What about the GI50 (NCI-H460) of the same molecule?
The GI50 was > 100 µM (inactive).

And the GI50 (NCI-H522)?
The GI50 was > 100 µM (inactive).

What about the GI50 (NCI/ADR-RES) of the same molecule?
The GI50 was > 100 µM (inactive).

What about the GI50 (OVCAR-3) of the same molecule?
The GI50 was > 100 µM (inactive).

And the GI50 (OVCAR-4)?
The GI50 was > 100 µM (inactive).

What about the GI50 (SF-268) of the same molecule?
The GI50 was > 100 µM (inactive).

What about the GI50 (SF-539) of the same molecule?
The GI50 was > 100 µM (inactive).

What about the GI50 (SW-620) of the same molecule?
Its GI50 is > 100 µM (inactive).

What about the GI50 (UO-31) of the same molecule?
The GI50 was 74.1 µM (inactive).

Which GI50 (A549) does the source give for `COC(=O)NNC(=O)OC.COC(=O)Nc1ccccc1NC(=O)OC.COC(=O)Oc1nn(C(=O)OC)c(=O)c2ccccc12` here?
Its GI50 is > 100 µM (inactive).

And the GI50 (CCRF-CEM)?
The GI50 was > 100 µM (inactive).

And the GI50 (HCC 2998)?
The GI50 was > 100 µM (inactive).

What about the GI50 (HOP-62) of the same molecule?
Its GI50 is > 100 µM (inactive).

And the GI50 (HT-29)?
The GI50 was > 100 µM (inactive).

And the GI50 (K562)?
The GI50 was > 100 µM (inactive).

What about the GI50 (LOX IMVI) of the same molecule?
The GI50 was > 100 µM (inactive).

What about the GI50 (M14) of the same molecule?
The GI50 was > 100 µM (inactive).

What about the GI50 (Malme-3M) of the same molecule?
Its GI50 is > 100 µM (inactive).

What about the GI50 (NCI-H460) of the same molecule?
Its GI50 is > 100 µM (inactive).

And the GI50 (NCI-H522)?
Its GI50 is > 100 µM (inactive).

And the GI50 (NCI/ADR-RES)?
Its GI50 is > 100 µM (inactive).

What about the GI50 (OVCAR-3) of the same molecule?
The GI50 was > 100 µM (inactive).

What about the GI50 (OVCAR-4) of the same molecule?
Its GI50 is > 100 µM (inactive).

And the GI50 (RXF 393)?
The GI50 was > 100 µM (inactive).

And the GI50 (SF-268)?
The GI50 was > 100 µM (inactive).

What about the GI50 (SF-539) of the same molecule?
The GI50 was > 100 µM (inactive).

And the GI50 (SW-620)?
Its GI50 is > 100 µM (inactive).

What about the GI50 (UO-31) of the same molecule?
Its GI50 is > 100 µM (inactive).

What does the source list for `COC(=O)C(NC(=O)C(CC(=O)OC(C)(C)C)NC(=O)OC(C)(C)C)C(O)c1ccccc1` (stereo not drawn)?
GI50 (A549): > 100 µM (inactive); GI50 (CCRF-CEM): > 100 µM (inactive); GI50 (HOP-62): > 100 µM (inactive); GI50 (HT-29): > 100 µM (inactive); GI50 (K562): > 100 µM (inactive); GI50 (LOX IMVI): > 100 µM (inactive); GI50 (M14): > 100 µM (inactive); GI50 (Malme-3M): > 100 µM (inactive); GI50 (NCI-H460): > 100 µM (inactive); GI50 (NCI-H522): > 100 µM (inactive); GI50 (NCI/ADR-RES): > 100 µM (inactive); GI50 (OVCAR-3): > 100 µM (inactive); GI50 (OVCAR-4): > 100 µM (inactive); GI50 (RXF 393): 97.5 µM (inactive); GI50 (SF-268): > 100 µM (inactive); GI50 (SF-539): > 100 µM (inactive); GI50 (SW-620): > 100 µM (inactive); GI50 (UO-31): > 100 µM (inactive)

`C=C[C@]1(C)CC[C@]2(C)C(CC[C@@]3(C)C2C[C@H](O)[C@H](O)[C@@]3(C)O)C1` (stereo partly drawn) was tested. Which GI50 (A549) did it give?
Its GI50 is > 100 µM (inactive).

And the GI50 (CCRF-CEM)?
Its GI50 is > 100 µM (inactive).

And the GI50 (HCC 2998)?
The GI50 was > 100 µM (inactive).

What about the GI50 (HOP-62) of the same molecule?
Its GI50 is > 100 µM (inactive).

And the GI50 (HT-29)?
Its GI50 is > 100 µM (inactive).

And the GI50 (K562)?
The GI50 was > 100 µM (inactive).

And the GI50 (LOX IMVI)?
The GI50 was > 100 µM (inactive).

And the GI50 (M14)?
The GI50 was > 100 µM (inactive).

What about the GI50 (Malme-3M) of the same molecule?
Its GI50 is > 100 µM (inactive).

And the GI50 (NCI-H460)?
The GI50 was > 100 µM (inactive).

And the GI50 (NCI-H522)?
The GI50 was > 100 µM (inactive).

And the GI50 (NCI/ADR-RES)?
Its GI50 is > 100 µM (inactive).

And the GI50 (OVCAR-3)?
Its GI50 is > 100 µM (inactive).

And the GI50 (SF-268)?
The GI50 was > 100 µM (inactive).

What about the GI50 (SF-539) of the same molecule?
Its GI50 is > 100 µM (inactive).

What about the GI50 (SW-620) of the same molecule?
The GI50 was > 100 µM (inactive).

And the GI50 (UO-31)?
The GI50 was > 100 µM (inactive).

Which results are given for `COc1cc2c(cc1OC)-c1[nH]c3ccc(C#N)cc3c1CC(=O)N2`?
GI50 (A549): 5.26 µM (inactive); GI50 (CCRF-CEM): 1.56 µM (inactive); GI50 (HOP-62): 3.86 µM (inactive); GI50 (HOP-92): > 100 µM (inactive); GI50 (HT-29): 3.88 µM (inactive); GI50 (LOX IMVI): 2.09 µM (inactive); GI50 (M14): 8.09 µM (inactive); GI50 (Malme-3M): > 28.5 µM (inactive); GI50 (NCI-H460): 5.31 µM (inactive); GI50 (NCI/ADR-RES): > 100 µM (inactive); GI50 (OVCAR-3): 1.42 µM (inactive); GI50 (OVCAR-4): > 30.1 µM (inactive); GI50 (SF-268): 1.72 µM (inactive); GI50 (SF-539): 0.521 µM (active); GI50 (SW-620): 1.03 µM (active); GI50 (UO-31): 2.11 µM (inactive)

Which GI50 (A549) does the source give for `N#Cc1c(-c2ccccc2)c(/C=N/c2ccc(F)cc2)c(=O)n2c1[nH]c1ccccc12` here?
The GI50 was 19.7 µM (inactive).

What about the GI50 (CCRF-CEM) of the same molecule?
Its GI50 is 15.6 µM (inactive).

And the GI50 (HCC 2998)?
Its GI50 is 21.2 µM (inactive).

And the GI50 (HOP-62)?
The GI50 was 2.95 µM (inactive).

And the GI50 (LOX IMVI)?
Its GI50 is 23.8 µM (inactive).

What about the GI50 (M14) of the same molecule?
The GI50 was 14.4 µM (inactive).

And the GI50 (Malme-3M)?
Its GI50 is 23.6 µM (inactive).

What about the GI50 (NCI-H460) of the same molecule?
Its GI50 is 17.8 µM (inactive).

What about the GI50 (NCI-H522) of the same molecule?
The GI50 was 16 µM (inactive).

What about the GI50 (NCI/ADR-RES) of the same molecule?
The GI50 was 21 µM (inactive).

What about the GI50 (OVCAR-3) of the same molecule?
Its GI50 is 19.7 µM (inactive).

And the GI50 (OVCAR-4)?
Its GI50 is 40.6 µM (inactive).

And the GI50 (RXF 393)?
Its GI50 is 22.5 µM (inactive).

And the GI50 (SF-268)?
Its GI50 is 29.4 µM (inactive).

What about the GI50 (SF-539) of the same molecule?
The GI50 was 30.2 µM (inactive).

What about the GI50 (SW-620) of the same molecule?
The GI50 was 29.5 µM (inactive).

And the GI50 (UO-31)?
The GI50 was 16.2 µM (inactive).

Reference: ChEMBL document CHEMBL1201862, “PubChem BioAssay data set” (2004)
